Experimental data taken from US20240173432A1, “Compositions and Methods for Treatment of Myotonic Dystrophy Type 1 with CRISPR/SluCas9” (Vertex Pharmaceuticals Incorporated, priority 2021, published 2024).

Tests used:
[1] = system: CUG foci in primary DM1 patient myoblasts; assay: Dual-cut screening: FISH staining of CUG RNA foci; type: cell-based, human; settings: sgRNA pair, primary DM1 patient myoblasts; for % of CUG foci free nuclei (DNA-PKi): 3 μM DNA-PKi Compound 6 for 48 hours; for % of CUG foci free nuclei (Vehicle): vehicle (DMSO)
Method in brief: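 SluCas9 RNPs (protein:sgRNA 1:3; 20 pmol SluCas9 + 60 pmol sgRNA per guide, paired 1:1) nucleofected into primary DM1 patient myoblasts, then DMSO or 3 μM DNA-PKi Compound 6 for 48 h. At 72 h post-nucleofection cells fixed, FISH-stained with Cy3-PNA(CAG)5 probe plus anti-MBNL1 and Hoechst; % CUG foci-free nuclei by high-content confocal imaging.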

[2] = system: CTG repeat in the 3′ UTR of human DMPK gene; assay: Dual-cut screening: CTG repeat excision efficiency by loss-of-signal ddPCR; type: cell-based; settings: sgRNA pair, primary DM1 patient myoblasts; for Excision efficiency (by ddPCR): 3 μM DNA-PKi Compound 6 for 48 hours; for Excision efficiency by ddPCR (Vehicle): vehicle (DMSO)
Experimental: RNPs were assembled with recombinant SluCas9 protein and chemically modified sgRNAs at a ratio of 1:3 (protein:sgRNA). For SINGLE-cut screening, RNP complexes were assembled with 30 pmol of SluCas9 and 90 pmol of sgRNA in P5 Primary Cell Nucleofector Solution (Lonza). After incubation at room temperature for 20 minutes, 10 μL of RNP complex were mixed with two hundred thousand of primary myoblasts resuspended in 10 μL of P5 Nucleofector Solution. For DOUBLE-cut screening, RNP complexes were first assembled for individual sgRNAs with 20 pmol of SluCas9 protein and 60 pmol of sgRNAs in 5 μL of P5 Nucleofector Solution. After incubation at room temperature for 20 minutes, the two RNP complexes (one for upstream sgRNA and one for downstream sgRNA) were mixed at 1:1 ratio and then further mixed with two hundred thousand of primary myoblasts resuspended in 10 μL of P5 Nucleofector Solution.
The Nucleofector 96-well Shuttle System (Lonza) was used to deliver the SluCa9/sgRNA RNPs into primary DM1 patient myoblasts using the nucleofection program CM138. Following nucleofection, myoblasts from each well of nucleofection shuttle were split into six wells of the 96-well cell culture plate (Greiner, 655090) coated with matrigel. The first three wells were treated with DMSO for 48 hrs before changing to fresh myoblast growth medium, and the other three wells were treated with 3 μM of DNA-PKi Compound 6 for 48 hrs before changing to fresh myoblast growth medium. 72 hrs post nucleofection, two wells of DMSO-treated myoblasts and two wells of DNA-PKi-treated myoblasts from each nucleofection were harvested for genomic DNA extraction using the Kingfisher Flex purification system (Thermal Fisher), whereas one well of DMSO-treated myoblasts and one well of DNA-PKi-treated myoblasts were stained for RNA foci by FISH staining.
The primers and probes of ddPCR are designed using the online primer design software Primer3Plus (http://www.bioinformatics.nl/cgi-bin/primer3plus/primer3plus.cgi). In some embodiments, two target primers/probe sets were used to detect CTG repeat excision, and a reference primers/probe set were used to amplify a region located in Exon 1 of human DMPK gene and to serve as a reference control for the target sets. The 24 μL of ddPCR reaction consists of 12 μL of Supermix for Probes (no dUTP) (Bio-Rad Laboratories), 1 μL of Reference primers mix (21.6 μM), 1 μL of Reference probe (6 μM), 1 μL of Target primers mix (21.6 μM), 1 μL of Target probe (6 μM), and 8 μL of sample genomic DNA. Droplets were generated using probe oil with the QX200 Droplet Generator (Bio-Rad Laboratories). Droplets were transferred to a 96-well PCR plate, sealed and cycled in a C1000 deep well Thermocycler (Bio-Rad Laboratories) under the following cycling protocol: 1 cycle at 95° C. for 10 min; 40 cycles of 94° C. for 30 see, and 58° C. for 1 min; 1 cycle at 98° C. for 10 min (for enzyme inactivation). The cycled plate was then transferred and read in the FAM and HEX channels using the Bio-Rad QX200 Droplet Reader (Bio-Rad Laboratories). ddPCR analysis is performed with the Bio-Rad QuantaSoft Pro Software.
To assess the efficiency of SluCas9 sgRNA pairs for inducing CTG repeat excision, Dual-cut screening was performed in which individual SluCas9 sgRNAs and recombinant SluCas9 protein were assembled into ribonucleoprotein (RNP) and delivered into primary DM1 patient myoblasts. Nucleofected myoblasts were treated with either DMSO (vehicle) or 3 μM of DNA-dependent Protein Kinase Inhibitor (DNA-PKi) Compound 6 for 48 hours. 72 hours post-nucleofection, myoblasts were subjected to either genomic DNA isolation or RNA foci staining by fluorescence in situ hybridization (FISH).
CRISPR repeat excision efficiency was assessed for each of the 88 pairs (FIG. 8A-B and Table 5). CTG repeat excision efficiency percentages are shown for vehicle (DMSO; white bars) and with DNA-PKi (black bars) (FIG. 8B and Table 5).

Substance | % of CUG foci free nuclei (DNA-PKi) [1] | % of CUG foci free nuclei (Vehicle) [1] | Excision efficiency (by ddPCR) [2] | Excision efficiency by ddPCR (Vehicle) [2]
SluU21 + SluD18 (guide 1 GCTCGGAGCGGTTGTGAACTGG; guide 2 TGGAGGATGGAACACGGACGGC; guide RNA; listed as DNA, chemistry not fully specified) | 89.21% | 54.26% | 65.52 | 45.61
SluU21 + SluD32 (guide 1 GCTCGGAGCGGTTGTGAACTGG; guide 2 CTTGTGCATGACGCCCTGCTCT; guide RNA; listed as DNA, chemistry not fully specified) | 88.76% | 52.71% | 70.09 | 41.94
SluU21 + SluD34 (guide 1 GCTCGGAGCGGTTGTGAACTGG; guide 2 CGCGCCAGACGCTCCCCAGAGC; guide RNA; listed as DNA, chemistry not fully specified) | 88.43% | 56.01% | 61.75 | 42.16
SluU21 + SluD48 (guide 1 GCTCGGAGCGGTTGTGAACTGG; guide 2 GAGAGCAGCGCAAGTGAGGAGG; guide RNA; listed as DNA, chemistry not fully specified) | 86.36% | 51.76% | 59.19 | 36.66
SluU21 + SluD56 (guide 1 GCTCGGAGCGGTTGTGAACTGG; guide 2 CCAGCCGGCTCCGCCCGCTTCG; guide RNA; listed as DNA, chemistry not fully specified) | 85.39% | 31.9% | 59.97 | 25.94
SluU21 + SluD68 (guide 1 GCTCGGAGCGGTTGTGAACTGG; guide 2 CCTGTAGCCTGTCAGCGAGTCG; guide RNA; listed as DNA, chemistry not fully specified) | 87.57% | 51.5% | 58.7 | 35.67
SluU21 + SluD73 (guide 1 GCTCGGAGCGGTTGTGAACTGG; guide 2 CCAAAACGTGGATTGGGGTTGT; guide RNA; listed as DNA, chemistry not fully specified) | 88.18% | 51.12% | 61.57 | 36.17
SluU21 + SluD83 (guide 1 GCTCGGAGCGGTTGTGAACTGG; guide 2 GTGGGGACAGACAATAAATACC; guide RNA; listed as DNA, chemistry not fully specified) | 89.23% | 51.65% | 63.44 | 37.42
SluU21 + SluD100 (guide 1 GCTCGGAGCGGTTGTGAACTGG; guide 2 GTCCAGAGCTTTGGGCAGATGG; guide RNA; listed as DNA, chemistry not fully specified) | 87.7% | 48.33% | 63.99 | 36.68
SluU59 + SluD32 (guide 1 CGCGGCCGGCGAACGGGGCTCG; guide 2 CTTGTGCATGACGCCCTGCTCT; guide RNA; listed as DNA, chemistry not fully specified) | 91.19% | 69.23% | 83.32 | 57.23
SluU59 + SluD34 (guide 1 CGCGGCCGGCGAACGGGGCTCG; guide 2 CGCGCCAGACGCTCCCCAGAGC; guide RNA; listed as DNA, chemistry not fully specified) | 89.01% | 76.47% | 71.96 | 55.22
SluU59 + SluD48 (guide 1 CGCGGCCGGCGAACGGGGCTCG; guide 2 GAGAGCAGCGCAAGTGAGGAGG; guide RNA; listed as DNA, chemistry not fully specified) | 87.28% | 62.15% | 65.89 | 47.17
SluU59 + SluD56 (guide 1 CGCGGCCGGCGAACGGGGCTCG; guide 2 CCAGCCGGCTCCGCCCGCTTCG; guide RNA; listed as DNA, chemistry not fully specified) | 84.48% | 46.4% | 55.14 | 35.6
SluU59 + SluD68 (guide 1 CGCGGCCGGCGAACGGGGCTCG; guide 2 CCTGTAGCCTGTCAGCGAGTCG; guide RNA; listed as DNA, chemistry not fully specified) | 89.37% | 62.8125% | 65.42 | 58.24
SluU59 + SluD73 (guide 1 CGCGGCCGGCGAACGGGGCTCG; guide 2 CCAAAACGTGGATTGGGGTTGT; guide RNA; listed as DNA, chemistry not fully specified) | 87.85% | 59.22% | 64.95 | 42.14
SluU59 + SluD83 (guide 1 CGCGGCCGGCGAACGGGGCTCG; guide 2 GTGGGGACAGACAATAAATACC; guide RNA; listed as DNA, chemistry not fully specified) | 90.49% | 64.61% | 64.95 | 49.18
SluU59 + SluD100 (guide 1 CGCGGCCGGCGAACGGGGCTCG; guide 2 GTCCAGAGCTTTGGGCAGATGG; guide RNA; listed as DNA, chemistry not fully specified) | 90.09% | 62.45% | 68.69 | 37.61
SluU62 + SluD32 (guide 1 AGGACCCTTCGAGCCCCGTTCG; guide 2 CTTGTGCATGACGCCCTGCTCT; guide RNA; listed as DNA, chemistry not fully specified) | 88.75% | 55.63% | 79.91 | 50.19
SluU62 + SluD34 (guide 1 AGGACCCTTCGAGCCCCGTTCG; guide 2 CGCGCCAGACGCTCCCCAGAGC; guide RNA; listed as DNA, chemistry not fully specified) | 88.29% | 64.71% | 64.95 | 48.18
